According to patent US9073851B2, “Compositions and methods for treating cancer” (Board of Regents, The University of Texas System, priority 2011, dated 2015):

Experiments:
[1] = tested on: MCF-7 cells; assay: Clonogenic survival assay; format: cell-based, human
Method: To study the effect of CaMK-III growth of ER(−) and ER(+) breast cancer cells we performed a clonogenic assay, which is based on the ability of a single cell to grow into a colony (Franken N A, et al. Nat Protoc 2006: 1:2315-9), using MDA-MB-231 and MCF-7 cells, respectively. Cells were transfected with either CaMK-III or control siRNA (50 nM) […] over a period of two weeks.
This assay is an in vitro cell survival assay based on the ability of a single cell to grow into a colony. Briefly, cells (500 cells/well) were transfected with control siRNA or CaMK-III siRNA every week and grown for 2 to 3 weeks. Cells were stained with crystal violet and colonies were counted. Each experiment was repeated twice.
To study the effect of 5-HT1B on the survival and colony formation of breast cancer cells a clonogenic survival assay was performed using various concentrations of […] over a period of two weeks. This assay is based on the ability of a single cell to grow into a colony [Franken N A, et al. Nat Protoc 2006: 1:2315-2319]. […] Cell death and detachment as well as reduced cell number was observed.
This assay is an in vitro cell survival assay based on the ability of a single cell to grow into a colony. […] Cells were stained with crystal violet and colonies cells were counted. […]

[2] = tested on: 5-HT1B or 5-HT1D receptor; assay: Effect on cell proliferation after siRNA knockdown of 5-HT1B or 5-HT1D receptor; format: cell-based
[3] = tested on: MDA-MB-231 cells; assay: MTS cell viability/proliferation assay; format: cell-based, human; details: triple negative
From the text: Viable and dead cells were detected by the trypan blue exclusion assay, the viability and/or proliferation of cells a MTS assay was used [Akar U, et al. Autophagy 2008: 4:669-79].
Viable and dead cells were detected by the trypan blue exclusion assay, where viable cells (non-stained) with intact membrane are able to exclude the dye, while dead cells take up the coloring blue agent from the media. To quantitatively assess the viability and/or proliferation of cells a MTS assay was used, which incorporates a redox indicator that changes color in response to metabolic activity. To study cell viability in response to CaMK-III siRNA or control siRNA and plasmid encoding CaMK-III or empty plasmid transfection cells were seeded in 96-well plates at a density of 3×10^3 cells per well in 100 μl of medium. Next day the medium was removed and cells were transfected with siRNA at different concentrations in 100 μl of medium plus transfection mix. […] Plates were read at dual wavelengths (570-595 nm) in an Elisa plate reader (Kinetic Microplate Reader, Molecular Devices Corporation, Sunnyvale, Calif.).
(aka proliferation assay, in this case MTS assay was used. MTS, MTT, XTT all similar assays often used as cell viability/toxicity assay). […] Plates were read at 490 nm wavelength in an Elisa plate reader (Kinetic Microplate Reader, Molecular Devices Corporation, Sunnyvale, Calif.).

CCCCCCCCCOc1ccc2[nH]cc(CCN)c2c1 [5-NT, 5-nonylytryptamine]
colony formation [1]: inhibits colony formation
effect of compound after knockdown of 5-HT1B or 5-HT1D receptor [2]: blunts the effect
inhibition of proliferation [3]: inhibits proliferation
